Measurements as given in patent publication US20100305157A1 (priority 2007, published 2010).
Like-named read-outs stand apart in the source and are kept apart here.

Assays:
[1] = target: T1, peripheral site of AChE from bovine erythrocytes (Bos taurus, UniProt P23795); assay: biochemical; format: binding; conditions: for inhibition at 0.3 µM: compound 0.3 micromolar (concentration of maximum reduction)
T1 construct: A solution of AChE from bovine erythrocytes; from tissue; host or cells: bovine erythrocytes
T1 sequence (P23795 31-614 isoform P23795-2 limits assumed): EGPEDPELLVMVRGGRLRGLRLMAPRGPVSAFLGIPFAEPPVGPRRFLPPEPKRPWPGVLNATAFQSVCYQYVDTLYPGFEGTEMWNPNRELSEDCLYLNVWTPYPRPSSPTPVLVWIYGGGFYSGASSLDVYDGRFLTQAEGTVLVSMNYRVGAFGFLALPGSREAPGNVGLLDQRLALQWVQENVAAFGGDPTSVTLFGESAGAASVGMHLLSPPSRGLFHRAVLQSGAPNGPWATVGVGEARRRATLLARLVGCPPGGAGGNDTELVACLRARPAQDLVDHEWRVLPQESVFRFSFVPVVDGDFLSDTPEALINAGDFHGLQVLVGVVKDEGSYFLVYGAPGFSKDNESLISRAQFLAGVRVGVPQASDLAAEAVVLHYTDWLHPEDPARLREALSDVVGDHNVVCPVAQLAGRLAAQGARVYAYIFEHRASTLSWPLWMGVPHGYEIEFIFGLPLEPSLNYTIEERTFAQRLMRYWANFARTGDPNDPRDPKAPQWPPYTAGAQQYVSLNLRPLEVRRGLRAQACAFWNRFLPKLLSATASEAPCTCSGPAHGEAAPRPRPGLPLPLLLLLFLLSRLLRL
Procedure: A competition test for the peripheral site of acetylcholinesterase was carried out with the compounds at concentrations of 0.3, 1 and 3 micromolar.
A solution of AChE from bovine erythrocytes at the concentration of 5 micromolar in Tris buffer 0.1 milimolar and pH 8 was used.

[2] = target: T2, purified AChE from Electrophorus electricus (Electrophorus electricus, UniProt O42275); assay: Inhibition of acetylcholinesterase (method of Rappaport); format: biochemical
T2 construct: using purified AChE from Electrophorus electricus; from tissue
Procedure: For this reason, it was considered interesting to evaluate the capacity to inhibit AChE of the compounds of the present invention. This evaluation was performed following the method of Rappaport (Clin. Chim. Acta 1959, 4, 227), using purified AChE from Electrophorus electricus and acetylcholine chloride (29.5 milimolar) as substrate. The reaction took place in a final volumen of 2.5 milliliters of an aqueous solution containing 0.78 units of AChE and m-nitrophenol at 1.9 milimolar to produce a yellow color, which is lost in function of the enzyme activity.
Curves of inhibition were made incubating with the compounds of the present invention for 30 minutes and a sample without any compound was prepared to determine the 100% of the enzymatic activity. After 30 minutes of incubation, the loss of yellow color was evaluated by measuring absorbance at 405 nanometers in a spectrophotometric microplate reader (iEMS Reader MF, Labsystems). The concentration of compound producing 50% inhibition of AChE activity (IC50) was calculated transforming the values of absorbance to enzymatic activity Rappaport units extrapolating from a calibration curve previously obtained.
The results of inhibition of AChE, expressed as the concentration which inhibits 50% of activity (IC50) for the compounds of the present invention, are the following: […]

[3] = system: human neuroblastoma cell line SH-SYSY; assay: Neuroprotection against hydrogen peroxide-induced cell death (LDH release); format: cell-based; conditions: for inhibition at 10 µM: read-out: Protection (%); for inhibition at 1 µM: compound 1 micromolar (concentration of maximum protection); for inhibition at 3 µM: compound 3 micromolar (concentration of maximum protection); for inhibition at 30 µM: compound 30 micromolar (concentration of maximum protection)
[4] = PAMPA
Procedure: (§1) The experiments were performed using two 96-well microplate in a sandwich assembly. The top microplate (Millipore, Ref MAIPS4510) is provided with 96 hydrophobic PVDF filters, where a solution of a lipid extract of pig brain (Avanti Polar Lipids) in dodecane is put down.
(§2) The bottom microplate has 96 tear-shaped wells (Millipore, Ref. MAMCS9610). The acceptor 96-well microplate was filled with 180 μL per well of a mixture of phosphate buffer saline pH 7.4 (PBS) and EtOH in proportion 90:10. The filter surface of the donor microplate was impregnated with 4 μL of a solution of lipid extract from pig brain in dodecane (20 mg mL^−1). Compounds were dissolved in PBS/EtOH (90:10) and then 180 μL were added to the donor microplate, which is carefully placed on the receiver plate. After 120 minutes of incubation at 25° C., plate donor is carefully separated and determined the concentration of the compounds in the acceptor plate by UV spectroscopy. This method measures the permeability, expressed as the rate of passage of a given barrier in 10^−6 centimeter per second (10^−6 cm s^−1). The results are expressed as the mean plus/minus the standard deviation of three independent assays, each containing four replicates of each tested compound.

in vitro = conditions: pig, PAMPA, pH 7.4
Procedure: as §1, §2

[5] = system: human neuroblastoma cell line SH-SYSY; assay: Neuroprotection against rotenone plus oligomycin A-induced cell death (LDH release); conditions: rotenone (30 micromolar) plus oligomycin A (10 micromolar)
Procedure: With this goal in mind, the cytoprotective effect of the compounds was evaluated in human neuroblastoma cells, specifically the neuroprotective potential of these compounds against oxidative stress produced in two different models: with hydrogen peroxide as exogenous generator of free radicals, and with rotenone and oligomycin A, blockers of the mitochondrial respiratory chain, as described in J. Neurochem.
In the assays, SH-SYSY were sub-cultured in 48-well plates with a density of seed of 5×10^5 cells per well, or in 96-well plates with a density of 2×10^5 cells per well. In the cytotoxicity experiments, cells prepared in this way were treated with the compounds to test, in DMEM free of serum.
To study the cytoprotective action of different compounds against cell death induced by hydrogen peroxide 30 micromolar or by a combination of rotenone 30 micromolar with oligomycin A 10 micromolar, compounds were added to the medium and maintained there for 24 hours. Then, media were replaced by fresh media still containing the compound plus the cytotoxic agent, and were maintained there for an additional period of 24 hours. Cell viability was checked by measuring the activity of the enzyme LDH, as it was explained before, using the kit “Cytotoxicity Cell Death” (Roche-Boehringer Mannheim) following the instructions of the manufacturer. Total LDH activity was defined as the sum of intra plus extra LDH activities. Released LDH was defined as the percentage of extracellular compared with total LDH activity.
In all the pharmacological experiments a positive control was used as comparison and to evaluate the reliability of the method used.

[6] = read-out: Protection (%) (percentage of the reduction in propidium fluorescence)
[7] = oxygen peroxide (60 micromolar) stimulus, SH-SYSY, LDH
[8] = 30 minutes incubation, acetylcholine chloride 29.5 milimolar as substrate, read-out: AChE-I, IC50
[9] = compound 3 micromolar (concentration of maximum reduction), propidium 20 micromolar, AChE 5 micromolar, read-out: Protection (%) (percentage of the reduction in propidium fluorescence)
[10] = compound 0.3 micromolar (concentration of maximum protection)
[11] = propidium 20 micromolar, AChE 5 micromolar, read-out: Protection (%) (percentage of the reduction in propidium fluorescence)
[12] = oxygen peroxide (60 micromolar) stimulus, compound 10 micromolar (concentration of maximum protection), SH-SYSY, LDH
[13] = compound 3 micromolar (concentration of maximum protection)

T2 sequence (O42275 24-633): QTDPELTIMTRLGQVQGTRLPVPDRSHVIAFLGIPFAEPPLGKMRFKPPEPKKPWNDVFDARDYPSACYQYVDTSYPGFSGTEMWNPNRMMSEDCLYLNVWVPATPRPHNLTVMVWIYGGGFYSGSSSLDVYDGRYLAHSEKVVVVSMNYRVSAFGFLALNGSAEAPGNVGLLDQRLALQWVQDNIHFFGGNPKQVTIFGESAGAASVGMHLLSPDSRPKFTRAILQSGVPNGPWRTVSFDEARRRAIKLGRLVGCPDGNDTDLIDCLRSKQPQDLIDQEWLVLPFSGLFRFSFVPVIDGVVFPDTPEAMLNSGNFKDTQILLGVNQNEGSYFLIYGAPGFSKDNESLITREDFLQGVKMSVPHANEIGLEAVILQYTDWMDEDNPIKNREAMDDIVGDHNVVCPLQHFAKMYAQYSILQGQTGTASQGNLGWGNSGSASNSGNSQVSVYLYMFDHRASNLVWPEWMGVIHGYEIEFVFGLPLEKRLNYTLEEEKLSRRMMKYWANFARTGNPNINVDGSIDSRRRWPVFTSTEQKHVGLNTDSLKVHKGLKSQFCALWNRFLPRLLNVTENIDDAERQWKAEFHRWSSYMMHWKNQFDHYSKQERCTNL

C=CC[N+](C)(C)c1ccc(CCC(=O)CCc2ccc([N+](C)(C)CC=C)cc2)cc1.[Br-].[Br-] [BW284c51, reference compound]
Protection (%) (percentage of the reduction in propidium fluorescence) ([1]; positive control at 1000 micromolar (1 milimolar), propidium 20 micromolar, AChE 5 micromolar): 24.5%

CCCCCCOC(=O)C(CCC(=O)NCCC1CCN(Cc2ccccc2)CC1)NC(=O)OCc1ccccc1 (stereo not shown) [Example 1.1, n-hexyl 2-benzyloxycarbonylamino-4-[2-(1-benzylpiperidin-4-yl)-ethylcarbamoyl]-butyrate]
IC50 [2]: 1400 nM
inhibition at 3 µM [1, 6]: 29.3%
inhibition at 10 µM [3]: 39.1%

CCCCCCOC(=O)C(CCC(=O)NCCC1CCN(Cc2ccccc2)CC1)NC(=O)OC(C)(C)C (stereo not shown) [Example 1.2, n-hexyl 4-[2-(1-benzylpiperidin-4-yl)-ethylcarbamoyl]-2-tert-butoxycarbonylamino-butyrate]
IC50 [2]: 5000 nM
inhibition at 1 µM [1, 6]: 43.6%
inhibition at 1 µM [3, 7]: 24.9%
Classification (CNS penetration) [4]: CNS+
Papp at 120 min (in vitro): 4.4 ± 0.1 ×10⁻⁶ cm/s

CCCCCCOC(=O)C(CCC(=O)NCCC1CCN(Cc2ccccc2)CC1)NC(=O)c1ccccc1 (stereo not shown) [Example 1.3, n-hexyl 2-benzoylamino-4-[2-(1-benzylpiperidin-4-yl)-ethylcarbamoyl]-butyrate]
IC50 [2, 8]: 1900 nM
inhibition at 3 µM [1, 9]: 37.3%
inhibition at 3 µM [3, 7]: 68.1%
Protection (%) [5, 10]: 47.9%

CCCCCCOC(=O)C(CCC(=O)NCCC1CCN(Cc2ccccc2)CC1)NC(=O)c1cc2ccccc2s1 (stereo not shown) [Example 1.4, n-hexyl 2-[(benzo[b]tiofen-2-carbonyl)-amino]-4-[2-(1-benzyl-piperidin-4-yl)-ethylcarbamoyl]-butyrate]
IC50 ([2]; read-out: AChE-I, IC50): 2500 nM
inhibition at 3 µM [1, 9]: 39.7%
inhibition at 1 µM [3, 7]: 28.7%

CCCCCCOC(=O)C(CCC(=O)NCCC1CCN(Cc2ccccc2)CC1)NC(=O)Cc1cc2ccc(Cl)cc2s1 (stereo not shown) [Example 1.5, n-hexyl 4-[2-(1-benzyl-piperidin-4-yl)-ethylcarbamoyl]-2-[2-(6-chloro-benzo[b]thiophen-2-yl)-acetylamino]-butyrate]
IC50 [2, 8]: 2300 nM
inhibition at 3 µM [1, 9]: 23.4%
inhibition at 3 µM [3, 7]: 32.5%

CCCCCCOC(=O)C(CCC(=O)NCCC1CCN(Cc2ccccc2)CC1)NC(=O)c1cc2cccnc2s1 (stereo not shown) [Example 1.6, n-hexyl 4-[2-(1-benzyl-piperidin-4-yl)-ethylcarbamoyl]-2-[(thieno[2,3-b]piridin-2-carbonyl)-amino]-butyrate]
IC50 [2, 8]: 3250 nM
inhibition at 0.3 µM [1, 11]: 37.4%
inhibition at 30 µM [3, 7]: 48.8%
Classification (CNS penetration) [4]: CNS+
Papp at 120 min (in vitro): 3.2 ± 0.01 ×10⁻⁶ cm/s

CCCCCCOC(=O)C(CCC(=O)NCCC1CCN(Cc2ccccc2)CC1)NC(=O)c1cc2ccsc2s1 (stereo not shown) [Example 1.7, n-hexyl 4-[2-(1-benzyl-piperidin-4-yl)-ethylcarbamoyl]-2-[(thieno[2,3-b]thiophen-2-carbonyl)-amino]-butyrate]
IC50 [2, 8]: 3500 nM
inhibition at 0.3 µM [1, 11]: 42.2%
inhibition at 10 µM [3, 12]: 46.4%
Protection (%) [5, 10]: 46.1%

CCCCCCOC(=O)C(CCC(=O)NCCC1CCN(Cc2ccccc2)CC1)NC(=O)c1cccs1 (stereo not shown) [Example 1.8, n-hexyl 4-[2-(1-benzyl-piperidin-4-yl)-ethylcarbamoyl]-2-[(thiophen-2-carbonyl)-amino]-butyrate]
IC50 [2, 8]: 3500 nM
inhibition at 3 µM [1, 9]: 15%
inhibition at 10 µM [3, 12]: 73%
Classification (CNS penetration) [4]: CNS+
Protection (%) ([5]; compound 0.1 micromolar (concentration of maximum protection)): 48.9%
Papp at 120 min (in vitro): 5.3 ± 0.01 ×10⁻⁶ cm/s

CCCCCCOC(=O)C(CCC(=O)NCCC1CCN(Cc2ccccc2)CC1)NC(=O)c1cc(Br)cs1 (stereo not shown) [Example 1.9, n-hexyl 4-[2-(1-benzyl-piperidin-4-yl)-ethylcarbamoyl]-2-[(4-bromo-thiophen-2-carbonyl)-amino]-butyrate]
IC50 [2, 8]: 1200 nM
inhibition at 0.3 µM [1, 11]: 11.3%
inhibition at 3 µM [3, 7]: 84.3%
Protection (%) [5, 13]: 35.9%

Cc1c(C)c2c(c(C)c1O)CCC(C)(C(=O)O)O2 (stereo not shown) [Trolox, trolox, reference compound]
inhibition at 30 µM [3, 7]: 57.7%
Protection (%) [5, 13]: 52.9%
